{"source": "patent US9090625B2", "about": "“Therapeutic pyrazolyl thienopyridines” (Thesan Pharmaceuticals, Inc., priority 2006, dated 2015)", "test_system": "Smad binding element (SBE) luciferase reporter activity in TGFβ1 stimulated NIH-3T3 cells", "experiment": "ALK-5 gene reporter assay: Smad binding element (SBE) luciferase reporter in TGFβ1 stimulated NIH-3T3 cells", "conditions": "Mus musculus, NIH3T3", "data": [{"smiles": "CCc1cnn(-c2cccc(C)n2)c1-c1cc2cnccc2s1", "note": "[Example 4, 2-[4-ethyl-1-(6-methylpyridin-2-yl)-1H-pyrazol-5-yl]thieno[3,2-c]pyridine]", "values": [{"measurement": "IC50", "value": 21.5, "unit": "nM"}]}]}
